We go through eight molecules from PubChem BioAssay (NCI).

What all share (assay): NCI anticancer screen, dose series, 48 h
The test system of assay [1] is EKVX NSCLC.
In assay [2] the test system is HCT-116 colon.
For assay [3], the system named is LOX IMVI melanoma.
The subject of assay [4] is MALME-3M melanoma.
Assay [5] has as its system MCF7 breast.
In assay [6] the test system is OVCAR-4 ovarian.
Assay [7] has as its system RPMI-8226 leukemia.
Assay [8] has as its system SR leukemia.
Assay [9] relates to TK-10 renal.
Assay [10] deals with SK-OV-3 ovarian.

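A five-concentration, 48-hour dose response in 96-well plates underlies each endpoint, interpolated linearly between surrounding concentrations. Abbreviation: GI50, concentration required for 50% inhibition of growth. TGI is the concentration that stops growth completely.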

With `COC(c1ccc(C(C)(C)C)cc1)(c1ccc(C(C)(C)C)cc1)c1ccc(C(C)(C)C)cc1`, the TGI in [1], in assay [2], in assay [3], in assay [4], in [5] and in [6] was over 100 µM throughout. Also, the TGI in [7], in assay [8] and in assay [9] was over 100 µM each time.

On to `Cc1ccc(OCCOCCOCCOCCOc2ccc(C)n(O)c2=S)c(=S)n1O`, for which the GI50 in assay [1] was 0.0213 µM; in [2] it was under 0.01 µM; in assay [3] it was 0.0481 µM; in assay [4] it was 0.0644 µM; in assay [5] it was under 0.01 µM; in [6], under 0.0105 µM. For the same molecule, the GI50 in assay [7] was 0.0267 µM; in assay [10], 0.0753 µM; in [8] it was 0.0616 µM; in [9] it was 0.527 µM. For the same molecule, the TGI was over 100 µM in [1]; over 100 µM in assay [2]; over 69.6 µM in [3]; over 52.7 µM in assay [4]; 43.6 µM in [5]; 55 µM in assay [6]. For the same molecule, the TGI was over 64 µM in assay [7], over 100 µM in assay [10], over 100 µM in assay [8] and over 100 µM in [9].

As to `C#CCOc1cccc(Nc2ncnc3c(NC(=O)C=C)cccc23)c1`, the GI50 was 28.3 µM in [1]; 17 µM in assay [2]; 15.7 µM in assay [3]; 18.5 µM in assay [4]; 21.2 µM in assay [5]; 37.8 µM in assay [6]. Further, the GI50 is 8.46 µM in [7], 38.2 µM in assay [10], 4.37 µM in [8] and 19.2 µM in [9]. The TGI in [1] is over 100 µM; in [2], 85.9 µM; in assay [3], 46.4 µM; in assay [4], 52 µM; in assay [5] it was over 100 µM; in assay [6] it was over 100 µM. Further, the TGI is 47.2 µM in [7], over 100 µM in assay [10], over 100 µM in [8] and 69.2 µM in assay [9].

In the case of `COc1ccc(-c2nccn2-c2ccc(OC)cc2)cc1`, the GI50 is 41.5 µM in assay [1]; 16.4 µM in assay [2]; 32.2 µM in [3]; 15.9 µM in assay [4]; 24.4 µM in [5]; 30.2 µM in assay [6]. For the same molecule, the GI50 in assay [7] was 13.4 µM; in [10] it was 22.8 µM; in [8], 0.64 µM; in assay [9] it was 23 µM. Moreover, the TGI in [1] was over 100 µM; in [2] it was 44.4 µM; in assay [3], 97.9 µM; in [4] it was 50.3 µM; in [5], over 66.1 µM; in [6] it was over 100 µM. The TGI is 36.6 µM in [7], 93.6 µM in assay [10], 30.8 µM in assay [8] and over 75.9 µM in [9].

With `O=C(NCc1ccc(Cn2c(=O)sn(-c3ccccc3)c2=O)cc1)OCc1ccc2cccc(O)c2n1`, the GI50 in [1] is 1.5 µM; in [2] it was 0.259 µM; in [3] it was 0.273 µM; in assay [4], 1.48 µM; in assay [5] it was 0.331 µM; in [6], 0.947 µM. The GI50 in assay [7] was 0.37 µM; in assay [10] it was 5.96 µM; in assay [8], 0.383 µM; in [9], 0.571 µM. In addition, the TGI in assay [1] was 3.05 µM; in [2], 1.14 µM; in assay [3] it was 0.955 µM; in assay [4], 2.86 µM; in assay [5] it was 2.12 µM; in [6], 2.28 µM. The TGI in [7] is 4.97 µM; in assay [10], 18.7 µM; in [8] it was over 100 µM; in assay [9], 1.62 µM.

For the molecule `O=C(Nc1cc(Nc2ncccc2-c2ncnc3nc[nH]c23)ccc1F)c1cc(C(F)(F)F)cc(C(F)(F)F)c1`, the GI50 in assay [1] is 4.1 µM; in [2] it was 0.601 µM; in assay [3], 0.384 µM; in assay [4] it was 0.152 µM; in assay [5] it was 2.65 µM; in assay [6] it was 1.57 µM. The GI50 in assay [7] was 2.12 µM; in [10] it was 2.78 µM; in [8] it was 2.09 µM; in assay [9] it was 3.75 µM. For the same molecule, the TGI in assay [1] is over 10 µM; in assay [2] it was 2.72 µM; in assay [3], 2.02 µM; in assay [4], 0.542 µM; in assay [5], over 10 µM; in [6], 4.34 µM. Also, the TGI in [7] is 6.4 µM; in [10], 9.19 µM; in assay [8] it was 5.67 µM; in assay [9], over 10 µM.

With `COC(=O)c1cc2c(o1)-c1nccc3c1c(nc1ccccc13)C2=O`, the GI50 in assay [1] is 14.9 µM; in assay [2], 1.92 µM; in assay [3], 3.61 µM; in assay [4], 1.89 µM; in assay [5], 2.07 µM; in assay [7], 2.03 µM. In addition, the GI50 is 10.7 µM in assay [10], 0.519 µM in assay [8] and 22.9 µM in assay [9]. Moreover, the TGI in assay [1] was determined as 35 µM; in [2] it was 5.95 µM; in assay [3] it was 16.2 µM; in assay [4], 5.96 µM; in assay [5], 15.6 µM; in [7], 18 µM. Further, the TGI in assay [10] amounted to 39.8 µM; in [8], 2.51 µM; in assay [9], 52.2 µM.

On to `CCCc1cc(=O)n2c(C(=O)Nc3ccc(Cl)cc3C)c(C(=O)Nc3ccc(F)cc3)sc2n1`, for which the GI50 was 21.3 µM in assay [1]; 2.53 µM in assay [2]; 1.6 µM in assay [3]; 5.12 µM in [4]; 4.67 µM in assay [5]; 2.57 µM in assay [6]. The GI50 in assay [7] was 2.7 µM; in assay [10], 12.7 µM; in assay [8] it was 0.943 µM; in assay [9], 12.3 µM. In addition, the TGI in assay [1] is over 150 µM; in [2] it was over 150 µM; in assay [3] it was 19.9 µM; in [4], 20.7 µM; in assay [5], 33.9 µM; in [6], 6.25 µM. Further, the TGI amounted to 6.88 µM in assay [7], 52.8 µM in assay [10], 3.75 µM in assay [8] and 39.3 µM in assay [9].
